Measurements as given in patent publication US12702671B2, “Calcineurin inhibitors of the setron family for the treatment of hearing loss” (SENSORION, priority 2015, dated 2026).
Where a name gives a salt, the structure may show the parent alone.

What was measured:
[1] = tested on: noise-induced hearing loss; conditions: Uemaetomari et al. 2005; Bas et al. 2009; cited from earlier work
calcineurin = experiment: Calcineurin phosphatase activity in cerebellar granule neurons after 4 DIV (malachite green colorimetric assay, Test A); assay type: cell-based, Wistar rat; conditions: for effect on calcineurin phosphatase activity: CGNs in K25 medium, 10, 100 or 1000 nM for 4 DIV, relative to K25 control (100%); for change of calcineurin inhibition with increasing concentration: CGNs, 4 DIV, 10-1000 nM
Description: According to Test A, phosphatase calcineurin activity is assessed in cerebellar granule neurons (CGNs) using a colorimetric assay kit based on quantification of the green complex formed between malachite green, molybdate and free phosphate released. CGNs are detached from plates, for example by scraping, rinsed in ice-cold tris buffer solution (TBS) and counted. About 10 million cells are lysed in 1 ml of the provided lysis buffer and centrifuged at 150,000×g at 4° C. for 45 min, and the supernatant may be stored at −70° C. until analysis. Prior to calcineurin activity assay, free phosphate and nucleotides are removed from cellular extract by gel filtration. To ensure the complete removal of phosphate, malachite green reagent may be added, which will turn the color green in presence of phosphate. A specific calcineurin substrate is added to phosphate-free cellular extracts and after appropriate incubation period, malachite green reagent is applied. The rapid green color formation from the reaction is measured, for example on a spectrophotometer. The developed color is proportional to the calcineurin phosphatase activity of samples. Absorbance values, read at 620 nm, may thus be transformed to percentage calcineurin activity relative to K25 control treatment (100%). Cerebellar granule cells were dissociated from the cerebellae of 7-day-old Wistar rat pups as described (Kramer et al. 2003, Mol Cell Neurosci 23:325-330). Briefly, the cerebellae were removed, rinsed in HBSS-BSA, minced, digested with 0.025% trypsin and incubated at 37° C. for 15 min. To stop the digestion, DMEM containing 10% fetal calf serum was added; then a single cell suspension was obtained through pipetting up and down the sedimented tissue. Following centrifugation, cells were counted using trypan blue exclusion test in a Burker chamber. This method is based on the ability of viable cells to exclude trypan blue due to their intact cell membranes, leaving them unstained while nonviable cells take up the dye. Cells at 3.2×10^5/cm^2 were seeded in DMEM Hepes modification supplemented with 10% fetal calf serum, 100 μg/ml pyruvate, and 100 μg/ml gentamicin on Polystyrene 12-well tissue culture plates (CELLSTAR) coated with poly-L-lysine. After 24 h, 10 μM cytosine arabinofuranoside was added to inhibit the growth of non-neuronal cells. All pharmacological interventions begun at this time in the culture medium containing 25 mM KCl (K25), which caused depolarization of granule cells and consequently activated gene expression machinery. Moreover, the viability of granule neurons was higher in this milieu and therefore provides the possibility to maintain cells for several days. Indeed, 25 mM KCl is required in the medium for CGN cultures to maintain adequate calcineurin activity and cell maturation and depolarization (Kramer et al., 2003, Mol Cell Neurosci 23:325-330; Vallano et al. 2006, Neuropharmacology 50: 651-660). Cultures received simple medium (K25 control) or medium containing a setron compound in HCl salt form (Tocris Bioscience, Bristol, UK) at concentrations of 10 nM, 100 nM or 1000 nM for 4 days in vitro (DIV). Phosphatase calcineurin activity was assessed in CGNs using a colorimetric assay kit based on quantification of the green complex formed between malachite green, molybdate and free phosphate released. CGNs were detached from plates by scraping, rinsed in ice-cold tris buffer solution (TBS) and counted. About 10 million cells are lysed in 1 ml of the provided lysis buffer and centrifuged at 150,000×g at 4° C. for 45 min, and the supernatant was stored at −70° C. until analysis. Prior to calcineurin activity assay, free phosphate and nucleotides were removed from cellular extract by gel filtration. To ensure the complete removal of phosphate, malachite green reagent was added, which will turn the color green in presence of phosphate. […]

[2] = tested on: acoustic trauma induced hearing loss; experiment: Auditory brainstem response (ABR) thresholds after acoustic trauma; assay type: in vivo, Wistar rats; conditions: for hearing outcomes (ABR thresholds and DPOAE amplitudes) at 14 days after acoustic trauma compared to placebo / ABR threshold recovery from 24 h to day 14 compared to placebo: i.p. daily for 14 days after acoustic trauma, same doses as E4; for ABR threshold shift from baseline to day 14 compared to placebo: i.p. daily for 14 days from immediately after 121 dB trauma, azasetron HCl 4.22, ondansetron HCl 4, tropisetron HCl 3.5, granisetron HCl 3.8, Tacrolimus 1.5 mg/kg
Description: (§1) All experiments were performed using 7 week old male Wistar rats (CERJ, Le Genest, France) in accordance with the French Ministry of Agriculture regulations and European Community Council Directive no. 86/609/EEC, OJL 358. The rats were fed a standard diet ad libitum and maintained on a 12 h light-dark cycle.
(§2) Auditory Brainstem Reponses (ABR) and Distortion Product Otoacoustic Emissions (DPOAE) were recording using a RZ6 Auditory Workstation (Tucker-Davis Technologies, Alachua, FL, USA) with animals deeply anesthetized using 90 mg/kg ketamine and 10 mg/kg xylazine and placed on a 35° C. recirculating heating pad inside a sound attenuating cubicle (Med Associates Inc., St. Albans, VT, USA) throughout the experiment.
For ABR recordings, three stainless steel needle electrodes were placed subdermally over the vertex, the right mastoid and right hind leg of each animal. Tone-pips (5 msec duration presented at a rate of 21/s) at 8, 16 and 24 kHz were delivered to the right ear using a calibrated MF-1 speaker in closed-field configuration (Tucker-Davis Technologies, Alachua, FL, USA) at attenuating intensity until no reproducible response could be recorded. Close to the ABR threshold, the responses to 1000 acoustic stimuli in 5 dB steps were averaged. Responses were low-pass filtered at 3 kHz.
(§3) Animals were exposed to 121 dB octave band noise (8-16 kHz) for 2 h in groups of 4 rats, placed in individual compartments of a custom built circular cage placed on a 30 cm diameter platform rotating at 3 turns/minute (Aqila Innovation, Valbonne, France). The calibrated octave band noise generated by the RZ6 SigGen software was further amplified by a Crown D-75 amplifier in bridge mode (Crown Audio, Elkhart, IN, USA) and delivered by four Beyma CP16 compression tweeters (Acustica Beyma S. L., Moncada, Valencia, Spain) positioned 39 cm above the rotating platform, each 10 cm from the platform center.
(§4) Animals were treated by intraperitoneal injection daily for 14 days beginning immediately after acoustic trauma induction and subsequently repeated every 24 hours. The setron compounds granisetron HCl, ondansetron HCl, tropisetron HCl and azasetron HCl (Tocris Bioscience, Bristol, UK) were delivered dissolved in saline solution (1.6 mL/kg) while Tacrolimus (Selleck Chemicals, Houston, TX, USA) was dissolved in solution composed of 10% ethanol-100%/10% Kolliphor EL/1% Tween 80/79% saline (1.0 mL/kg). Placebo treated animals received injections of 1.6 mL/kg saline following the same treatment schedule.
(§5) Statistical analysis was performed using two-way ANOVA (Audiometry data: frequency and treatment group. Cochleograms: normalized distance from apex and treatment group) followed by Holm-Sidak post-hoc test for multiple comparisons. Results are given as mean±SEM and a p value less than or equal to 0.05 considered significant.
(§6) Baseline line audiometry (ABR and DPOAE measures) was performed for each animal 3 days before acoustic trauma was induced. Subsequently, audiometry measures were repeated 24 h and 14 days after acoustic trauma.
(§7) To quantify and compare the difference in treatment effects between groups while taking into account individual baseline and trauma variability, the hearing loss (ABR threshold shift & DPOAE amplitude loss) at D14 relative to baseline, as well as the functional recovery of hearing from 24 h to D14 (ABR threshold shift & DPOAE amplitude loss) were determined for all treatment groups.

[3] = tested on: acoustic trauma induced hearing loss; experiment: Distortion product otoacoustic emissions (DPOAE) amplitudes after acoustic trauma; assay type: in vivo, Wistar rats; conditions: for DPOAE amplitude loss from baseline to day 14 compared to placebo / recovery of DPOAE amplitudes from 24 h post trauma to day 14 compared to placebo: i.p. daily for 14 days after acoustic trauma, same doses as E4
Description: as §1, §2
DPOAEs were recorded and using ER10B+ Low Noise DPOAE microphone (Etymotic Research, Inc., Elk Grove Village, IL, USA) with acoustic stimuli delivered by two calibrated MF-1 speakers in closed-field configuration (Tucker-Davis Technologies, Alachua, FL, USA). DPOAEs were recorded at fixed stimulus levels (L1=L2=70 dB SPL), with an f2/f1 ratio of 1.2. Responses were recorded at 4, 8, 16, 24 and 32 kHz.
as §3, §4, §5, §6, §7

outer hair cells = experiment: Outer hair cell loss (cytocochleograms) in cochleae fixed at D14 after acoustic trauma; assay type: in vivo, Wistar rats; conditions: cochleae fixed after audiometry on day 14
Description: as §3, §4
After audiometry on day 14, animals were deeply anaesthetized with an intraperitoneal injection of pentobarbital (100 mg/kg). The cochleae were removed, fixed with 4% paraformaldehyde, pH 7.4, decalcified with 10% EDTA, pH 7.4 and then stained with myosin VIIa 1/1000. […] The mean loss of OHCs per group was subsequently calculated as a function of normalized distance from the apex in bins of 2.5% of the total length, using the total length of each histological specimen. Cell counts could reliably be obtained for up to 90% of the total distance from the apex (corresponding to the tonotopic region up to from 0 kHz to ~50 kHz in rat, Viberg & Canlon 2004), while the last 10% was too variable due to damage incurred during dissection.
as §5
To further support the conclusions from the functional audiometry data, the loss of outer hair cells in four treatment group was determined by constructing cytocochleograms from histological preparations of cochleae fixed after audiometry on day 14.

[4] = day 14, i.p. daily for 14 days after acoustic trauma

Compound | effect on hearing loss in pre-clinical models of noise-induced hearing loss [1] | effect on calcineurin phosphatase activity (calcineurin) | change of calcineurin inhibition with increasing concentration (calcineurin) | reduction of ABR threshold shifts compared to placebo treatment [2, 4] | hearing outcomes (ABR thresholds and DPOAE amplitudes) at 14 days after acoustic trauma compared to placebo [2] | ABR threshold shift from baseline to day 14 compared to placebo [2] | reduction of DPOAE amplitudes loss compared to placebo treatment [3, 4] | DPOAE amplitude loss from baseline to day 14 compared to placebo [3] | recovery of DPOAE amplitudes from 24 h post trauma to day 14 compared to placebo [3] | ABR threshold recovery from 24 h to day 14 compared to placebo [2] | mean loss of outer hair cells compared to placebo (outer hair cells) | DPOAE amplitude loss from baseline to day 14 compared to placebo ([3]; listed as tropisetron) | mean loss of outer hair cells compared to placebo (outer hair cells; listed as granisetron) | DPOAE amplitude loss from baseline to day 14 compared to placebo ([3]; listed as granisetron)
cyclosporine A | reduce hearing loss |  |  |  |  |  |  |  |  |  |  |  |  | 
Cn1cc(C(=O)[C@@H]2CCc3nc[nH]c3C2)c2ccccc21 [ramosetron HCl] |  | significantly inhibited | increased to different degree with increasing concentrations |  |  |  |  |  |  |  |  |  |  | 
Cc1nccn1CC1CCc2c(c3ccccc3n2C)C1=O (centres unmarked) [ondansetron HCl] |  | significantly inhibited | decreased with increasing concentration | 10-30% | improvement at some frequencies | lower ABR threshold shift | 10-30% | trend towards reduced loss of DPOAE amplitude | improved recovery |  |  |  |  | 
CN1[C@@H]2CC[C@H]1C[C@@H](OC(=O)c1c[nH]c3ccccc13)C2 [tropisetron HCl] |  | significantly inhibited | increased to different degree with increasing concentrations |  | worse ABR thresholds and DPOAE amplitudes | strong trends towards higher ABR threshold shifts |  | trend towards increased DPOAE amplitude loss | reduced recovery | decreased threshold recovery | trend towards worse | trend towards worse DPOAE amplitudes |  | 
CN1C2CCCC1CC(NC(=O)c1nn(C)c3ccccc13)C2 (centres unmarked) [granisetron HCl] |  | no effect |  |  | worse ABR thresholds and DPOAE amplitudes | strong trends towards higher ABR threshold shifts |  | trend towards increased DPOAE amplitude loss | reduced recovery | decreased threshold recovery | Neither the granisetron HCl nor the tacrolimus treated groups were significantly different from placebo |  | trend towards worse | trend towards worse DPOAE amplitudes
